Target: T1, 5-HT1A serotonin receptor (Rattus norvegicus, UniProt P19327)
T1 construct: following the procedure of Hall et al., J. Neurochem; 44, 1685(1985); from tissue
T1 sequence (P19327 1-422): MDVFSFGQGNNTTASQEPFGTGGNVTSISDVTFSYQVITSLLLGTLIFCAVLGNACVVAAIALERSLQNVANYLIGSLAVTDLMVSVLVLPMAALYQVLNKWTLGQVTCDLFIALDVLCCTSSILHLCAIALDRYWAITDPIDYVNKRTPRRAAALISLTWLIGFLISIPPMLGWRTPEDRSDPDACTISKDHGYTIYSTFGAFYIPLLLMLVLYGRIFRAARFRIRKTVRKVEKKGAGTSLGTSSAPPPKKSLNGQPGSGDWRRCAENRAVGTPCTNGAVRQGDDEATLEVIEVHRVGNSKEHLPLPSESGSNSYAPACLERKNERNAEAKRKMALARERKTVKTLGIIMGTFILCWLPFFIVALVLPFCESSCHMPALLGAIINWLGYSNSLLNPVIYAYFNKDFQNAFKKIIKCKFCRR
Test: displacement of [^3 H] 8-OHDPAT from the 5-HT1A serotonin receptor (procedure of Hall et al.)
Details: read-out: 5-HT1A Binding (IC50)
Excerpt: High affinity for the serotonin 5-HT1A receptor was established by testing the claimed compound's ability to displace [^3 H] 8-OHDPAT (dipropylaminotetralin) from the 5-HT1A serotonin receptor following the procedure of Hall et al., J. Neurochem. 44, 1685(1985). […] The anxiolytic activity of buspirone is believed to be, at least partially, due to its 5-HT1A receptor affinity (Vander Maclen et al., Eur. J. Pharmacol. 1986, 129 (1-2) 133-130).
The result of the standard experimental test procedure described in the preceding paragraph was as follows when applied to the representative compound of this invention: […]

- IC50: 0.0952 µM
Compound: COc1ccccc1N1CCN(CCC(C(=O)NCCN2CCOCC2)c2ccccc2)CC1 (stereo not shown) [Example 1, 4-[4-(2-Methoxy-phenyl)-piperazin-1-yl]-N-(2-morpholin-4-yl-ethyl)-2phenyl-butyramide]
